≈ marks a conversion by molar mass, not a printed value.
How the values were obtained:
L1210 = assay: Cytotoxicity against mouse L1210 cells; format: functional, cell-based
KB = assay: Cytotoxicity against human KB cells; format: functional, cell-based
[1] = tested on: Trichophyton mentagrophytes; assay: Antifungal activity against Trichophyton mentagrophytes; format: functional

Compound	IC50 (L1210)	IC50 (KB)	MIC [1]
CO[C@@H](C[C@@H]1OC(=O)C[C@@H](O)C[C@H](N)CC(=O)[C@H](C)[C@H](OC)c2coc(n2)-c2coc(n2)-c2coc(n2)/C=C/CC[C@H]1C)[C@@H](C)CCC(=O)[C@H](C)[C@@H](C/C=C/N(C)C=O)OC [HALISHIGAMIDE A]	0.0036 µg/mL (≈ 0.00422 µM)	0.012 µg/mL (≈ 0.0141 µM)	0.1 µg/mL (≈ 0.117 µM)
COC(=O)c1coc(-c2coc(/C=C/CCC(C)C(CC(OC)C(C)CCC(=O)C(C)C(C/C=C/N(C)C=O)OC)OC(=O)CC(O)C/C=C/C(=O)C(C)C(OC)C(N)=O)n2)n1 (configuration not stated) [HALISHIGAMIDE C]	5.2 µg/mL (≈ 5.96 µM)	6.5 µg/mL (≈ 7.45 µM)	25 µg/mL (≈ 28.6 µM)
COC(=O)c1coc(/C=C/CCC(C)C(CC(OC)C(C)CCC(=O)C(C)C(C/C=C/N(C)C=O)OC)OC(=O)CC(O)C/C=C/C(=O)C(C)C(OC)c2coc(C(N)=O)n2)n1 (configuration not stated) [HALISHIGAMIDE D]	1.1 µg/mL (≈ 1.26 µM)	1.8 µg/mL (≈ 2.06 µM)	6.5 µg/mL (≈ 7.45 µM)
COC(CC1OC(=O)CC(O)C/C=C/C(=O)C(C)C(OC)C(=O)NC(=O)c2coc(n2)-c2coc(n2)/C=C/CCC1C)C(C)CCC(=O)C(C)C(C/C=C/N(C)C=O)OC (configuration not stated) [HALISHIGAMIDE B]	4.4 µg/mL (≈ 5.23 µM)	7.5 µg/mL (≈ 8.92 µM)	25 µg/mL (≈ 29.7 µM)
